Where “and” joins values, the source holds several entries; their conditions need not be identical. Equal values may be shown once. Inconclusive results and toxic doses are left out. How the source made its calls: active means survival T/C of 150% or more; inactive means T/C below 125% in these data.
Test system: BDF1 mice, C1498 leukemia ip, median survival T/C
Assay: NCI In Vivo Anticancer Drug Screen. Data for tumor model C1498 Myeloid Leukemia (intraperitoneal) in B6D2F1 (BDF1) mice
Conditions: endpoint: median survival time, higher = longer survival
Protocol: The antitumor activity of compounds was measured in mice bearing transplantable tumors. Survival or tumor size were measured and the results are expressed as the measurement made in the treated group (T) divided by the measurement made in the vehicle treated control group (C). The tumor model used in this assay is C1498 Myeloid Leukemia (intraperitoneal) in B6D2F1 (BDF1) mice

Measured: T/C

CN(C)c1nc(N(C)C)nc(N(C)C)n1
inactive: dose: 18.8 mg/kg/injection, schedule: Q01DX010 (ip), vehicle: saline 100 % of control and 109 % of control | dose: 37.5 mg/kg/injection, schedule: Q01DX010 (ip), vehicle: saline 104 % of control and 118 % of control | dose: 75.0 mg/kg/injection, schedule: Q01DX010 (ip), vehicle: saline 100 % of control and 109 % of control | dose: 150.0 mg/kg/injection, schedule: Q01DX010 (ip), vehicle: saline 109 % of control and 118 % of control

O=c1cnn(C2OC(CO)C(O)C2O)c(=O)[nH]1 (stereo not given)
inactive: dose: 200.0 mg/kg/injection, schedule: Q01DX010 (ip), vehicle: saline 104 % of control | dose: 400.0 mg/kg/injection, schedule: Q01DX010 (ip), vehicle: saline 100 % of control | dose: 800.0 mg/kg/injection, schedule: Q01DX010 (ip), vehicle: saline 100 % of control

Nc1nc2n[nH]nc2c(=O)[nH]1
inactive: dose: 25.0 mg/kg/injection, schedule: Q01DX010 (ip), vehicle: alkali diluted with saline 92 % of control and 96 % of control | dose: 50.0 mg/kg/injection, schedule: Q01DX010 (ip), vehicle: alkali diluted with saline 92 % of control and 96 % of control | dose: 100.0 mg/kg/injection, schedule: Q01DX010 (ip), vehicle: alkali diluted with saline 100 % of control and 89 % of control | dose: 200.0 mg/kg/injection, schedule: Q01DX010 (ip), vehicle: alkali diluted with saline 96 % of control

N#CCSc1ncnc2nc[nH]c12
inactive: dose: 30.0 mg/kg/injection, schedule: Q01DX010 (ip), vehicle: saline 105 % of control | dose: 60.0 mg/kg/injection, schedule: Q01DX010 (ip), vehicle: saline 110 % of control

S=P(N1CCOCC1)(N1CC1)N1CC1
inactive: dose: 2.5 mg/kg/injection, schedule: Q01DX010 (ip), vehicle: saline 95 % of control and 104 % of control | dose: 5.0 mg/kg/injection, schedule: Q01DX010 (ip), vehicle: saline 95 % of control and 100 % of control | dose: 10.0 mg/kg/injection, schedule: Q01DX010 (ip), vehicle: saline 100 % of control and 104 % of control | dose: 20.0 mg/kg/injection, schedule: Q01DX010 (ip), vehicle: saline 104 % of control

CN(Cc1cnc2nc(N)nc(N)c2n1)c1ccc(C(=O)N[C@@H](CCC(=O)O)C(=O)O)cc1
inactive: dose: 1.5 mg/kg/injection, schedule: Q01DX009 (ip), vehicle: sodium bicarbonate 110 % of control | dose: 2.0 mg/kg/injection, schedule: Q01DX009 (ip), vehicle: sodium bicarbonate 124 % of control

COc1cc2c(c3c1c(=O)c1ccccc1n3C)C=CC(C)(C)O2
inactive: dose: 6.25 mg/kg/injection, schedule: Q01DX010 (ip), vehicle: other 100 % of control | dose: 12.5 mg/kg/injection, schedule: Q01DX010 (ip), vehicle: other 107 % of control | dose: 25.0 mg/kg/injection, schedule: Q01DX010 (ip), vehicle: other 103 % of control | dose: 50.0 mg/kg/injection, schedule: Q01DX010 (ip), vehicle: other 119 % of control | dose: 100.0 mg/kg/injection, schedule: Q01DX010 (ip), vehicle: other 100 % of control

CCCSc1ncnc2nc[nH]c12
inactive: dose: 31.3 mg/kg/injection, schedule: Q01DX010 (ip), vehicle: saline 100 % of control and 104 % of control | dose: 62.5 mg/kg/injection, schedule: Q01DX010 (ip), vehicle: saline 100 % of control and 109 % of control | dose: 125.0 mg/kg/injection, schedule: Q01DX010 (ip), vehicle: saline 104 % of control and 90 % of control

CC(=O)O[C@]1(C(C)=O)CC[C@H]2[C@@H]3C[C@H](C)C4=CC(=O)C=C[C@]4(C)[C@@]3(F)[C@@H](O)C[C@@]21C
inactive: dose: 12.5 mg/kg/injection, schedule: Q01DX010 (sc), vehicle: steriod suspending solution 100 % of control | dose: 25.0 mg/kg/injection, schedule: Q01DX010 (sc), vehicle: steriod suspending solution 100 % of control | dose: 50.0 mg/kg/injection, schedule: Q01DX010 (sc), vehicle: steriod suspending solution 100 % of control | dose: 100.0 mg/kg/injection, schedule: Q01DX010 (sc), vehicle: steriod suspending solution 100 % of control

CC(CCC(C)OS(C)(=O)=O)OS(C)(=O)=O (stereo not given)
inactive: dose: 4.0 mg/kg/injection, schedule: Q01DX010 (ip), vehicle: saline 109 % of control | dose: 8.0 mg/kg/injection, schedule: Q01DX010 (ip), vehicle: saline 95 % of control | dose: 16.0 mg/kg/injection, schedule: Q01DX010 (ip), vehicle: saline 100 % of control | dose: 32.0 mg/kg/injection, schedule: Q01DX010 (ip), vehicle: saline 104 % of control

From PubChem BioAssay AID312 (DTP/NCI, 2004)
